Measured values: US6358885B1, “Substituted phenylheterocyclic herbicides” (Mississippi State University, priority 1992, dated 2002)

Experiments:
Experiment in all cases: Test B preemergence/postemergence greenhouse plant response rating 0 to 10
cheatgrass = assay type: in vivo, Bromus secalinus; settings: 0 to 10 scale
Summary of the method: (§1)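 Test chemicals were sprayed onto freshly planted seed and, concurrently, onto young plants between the one and four leaf stage. After a twelve- to sixteen-day greenhouse period, each species was visually compared with untreated controls.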

wild oat = assay type: in vivo, Avena fatua; settings: 0 to 10 scale
Summary of the method: as §1

chickweed = assay type: in vivo, Stellaria media; settings: 0 to 10 scale
Summary of the method: as §1

sorghum = assay type: in vivo, Sorghum bicolor; settings: 0 to 10 scale
Summary of the method: as §1

soybean = assay type: in vivo, Glycine max; settings: 0 to 10 scale
Summary of the method: as §1

wild buckwheat = assay type: in vivo, Polygonum convolvulus; settings: 0 to 10 scale
Summary of the method: as §1

morningglory = assay type: in vivo, Ipomoea hederacea; settings: 0 to 10 scale
Summary of the method: as §1

blackgrass = assay type: in vivo, Alopecurus myosuroides; settings: 0 to 10 scale
Summary of the method: as §1

giant foxtail = assay type: in vivo, Setaria faberii; settings: 0 to 10 scale
Summary of the method: as §1

cotton = assay type: in vivo, Gossypium hirsutum; settings: 0 to 10 scale
Summary of the method: as §1

rice = assay type: in vivo, Oryza sativa; settings: 0 to 10 scale
Summary of the method: as §1

wheat = assay type: in vivo, Triticum aestivum; settings: 0 to 10 scale
Summary of the method: as §1

crabgrass = assay type: in vivo, Digitaria spp.; settings: PREEMERGENCE, 0 to 10 scale
Summary of the method: as §1

velvetleaf = assay type: in vivo, Abutilon theophrasti; settings: 0 to 10 scale
Summary of the method: as §1

rape = assay type: in vivo, Brassica napus; settings: 0 to 10 scale
Summary of the method: as §1

barley = assay type: in vivo, Hordeum vulgare; settings: 0 to 10 scale
Summary of the method: as §1

bedstraw = assay type: in vivo, Galium aparine; settings: 0 to 10 scale
Summary of the method: as §1

barnyardgrass = assay type: in vivo, Echinochloa crus-galli; settings: 0 to 10 scale
Summary of the method: as §1

purple nutsedge = assay type: in vivo, Cyperus rotundus; settings: 0 to 10 scale
Summary of the method: as §1

cocklebur = assay type: in vivo, Xanthium pensylvanicum; settings: 0 to 10 scale
Summary of the method: as §1

lambsquarters = assay type: in vivo, Chenopodium album; settings: 0 to 10 scale
Summary of the method: as §1

sugar beet = assay type: in vivo, Beta vulgaris; settings: 0 to 10 scale
Summary of the method: as §1

corn = assay type: in vivo, Zea mays; settings: 0 to 10 scale
Summary of the method: as §1

CC(=O)c1cc(-c2nn3c(c2Cl)CCCC3)c(F)cc1Cl [Compound 45]
Plant response rating, Cheatgrass (cheatgrass; POSTEMERGENCE, Rate 50 g/ha): 4
Plant response rating, Cheatgrass (cheatgrass; POSTEMERGENCE, Rate 200 g/ha): 6
Plant response rating, Cheatgrass (cheatgrass; PREEMERGENCE, Rate 50 g/ha): 2
Plant response rating, Cheatgrass (cheatgrass; Rate 200 g/ha, PREEMERGENCE): 2
Plant response rating, Wild oat (wild oat; POSTEMERGENCE, Rate 50 g/ha): 2
Plant response rating, Wild oat (wild oat; PREEMERGENCE, Rate 50 g/ha): 2
Plant response rating, Wild oat (wild oat; Rate 200 g/ha, POSTEMERGENCE): 3
Plant response rating, Chickweed (chickweed; POSTEMERGENCE, Rate 50 g/ha): 8
Plant response rating, Chickweed (chickweed; POSTEMERGENCE, Rate 200 g/ha): 7
Plant response rating, Chickweed (chickweed; PREEMERGENCE, Rate 50 g/ha): 3
Plant response rating, Chickweed (chickweed; Rate 200 g/ha, PREEMERGENCE): 2
Plant response rating, Sorghum (sorghum; POSTEMERGENCE, Rate 50 g/ha): 4
Plant response rating, Sorghum (sorghum; PREEMERGENCE, Rate 50 g/ha): 0
Plant response rating, Sorghum (sorghum; Rate 200 g/ha, POSTEMERGENCE): 5
Plant response rating, Sorghum (sorghum; Rate 200 g/ha, PREEMERGENCE): 1
Plant response rating, Soybean (soybean; POSTEMERGENCE, Rate 50 g/ha): 8
Plant response rating, Soybean (soybean; PREEMERGENCE, Rate 50 g/ha): 0
Plant response rating, Soybean (soybean; Rate 200 g/ha, POSTEMERGENCE): 8
Plant response rating, Soybean (soybean; Rate 200 g/ha, PREEMERGENCE): 2
Plant response rating, Wild buckwheat (wild buckwheat; POSTEMERGENCE, Rate 50 g/ha): 10
Plant response rating, Wild buckwheat (wild buckwheat; PREEMERGENCE, Rate 50 g/ha): 3
Plant response rating, Wild buckwheat (wild buckwheat; Rate 200 g/ha, POSTEMERGENCE): 10
Plant response rating, Wild buckwheat (wild buckwheat; Rate 200 g/ha, PREEMERGENCE): 10
Plant response rating, Morningglory (morningglory; POSTEMERGENCE, Rate 50 g/ha): 8
Plant response rating, Morningglory (morningglory; PREEMERGENCE, Rate 50 g/ha): 2
Plant response rating, Morningglory (morningglory; Rate 200 g/ha, POSTEMERGENCE): 9
Plant response rating, Morningglory (morningglory; Rate 200 g/ha, PREEMERGENCE): 4
Plant response rating, Blackgrass (blackgrass; POSTEMERGENCE, Rate 50 g/ha): 6
Plant response rating, Blackgrass (blackgrass; POSTEMERGENCE, Rate 200 g/ha): 3
Plant response rating, Blackgrass (blackgrass; PREEMERGENCE, Rate 50 g/ha): 2
Plant response rating, Blackgrass (blackgrass; Rate 200 g/ha, PREEMERGENCE): 3
Plant response rating, Giant foxtail (giant foxtail; POSTEMERGENCE, Rate 50 g/ha): 5
Plant response rating, Giant foxtail (giant foxtail; PREEMERGENCE, Rate 50 g/ha): 2
Plant response rating, Giant foxtail (giant foxtail; Rate 200 g/ha, POSTEMERGENCE): 5
Plant response rating, Giant foxtail (giant foxtail; Rate 200 g/ha, PREEMERGENCE): 5
Plant response rating, Cotton (cotton; POSTEMERGENCE, Rate 50 g/ha): 10
Plant response rating, Cotton (cotton; POSTEMERGENCE, Rate 200 g/ha): 10
Plant response rating, Cotton (cotton; PREEMERGENCE, Rate 50 g/ha): 0
Plant response rating, Cotton (cotton; Rate 200 g/ha, PREEMERGENCE): 0
Plant response rating, Rice (rice; POSTEMERGENCE, Rate 50 g/ha): 6
Plant response rating, Rice (rice; PREEMERGENCE, Rate 50 g/ha): 0
Plant response rating, Rice (rice; Rate 200 g/ha, POSTEMERGENCE): 6
Plant response rating, Rice (rice; Rate 200 g/ha, PREEMERGENCE): 3
Plant response rating, Wheat (wheat; POSTEMERGENCE, Rate 50 g/ha): 3
Plant response rating, Wheat (wheat; PREEMERGENCE, Rate 50 g/ha): 2
Plant response rating, Wheat (wheat; Rate 200 g/ha, POSTEMERGENCE): 8
Plant response rating, Wheat (wheat; Rate 200 g/ha, PREEMERGENCE): 5
Plant response rating, Crabgrass (crabgrass; Rate 50 g/ha): 0
Plant response rating, Crabgrass (crabgrass; Rate 200 g/ha): 6
Plant response rating, Velvetleaf (velvetleaf; POSTEMERGENCE, Rate 50 g/ha): 9
Plant response rating, Velvetleaf (velvetleaf; PREEMERGENCE, Rate 50 g/ha): 2
Plant response rating, Velvetleaf (velvetleaf; Rate 200 g/ha, POSTEMERGENCE): 10
Plant response rating, Velvetleaf (velvetleaf; Rate 200 g/ha, PREEMERGENCE): 0
Plant response rating, Rape (rape; POSTEMERGENCE, Rate 50 g/ha): 3
Plant response rating, Rape (rape; PREEMERGENCE, Rate 50 g/ha): 2
Plant response rating, Rape (rape; Rate 200 g/ha, POSTEMERGENCE): 10
Plant response rating, Rape (rape; Rate 200 g/ha, PREEMERGENCE): 7
Plant response rating, Barley (barley; POSTEMERGENCE, Rate 50 g/ha): 4
Plant response rating, Barley (barley; POSTEMERGENCE, Rate 200 g/ha): 3
Plant response rating, Barley (barley; PREEMERGENCE, Rate 50 g/ha): 0
Plant response rating, Barley (barley; Rate 200 g/ha, PREEMERGENCE): 2
Plant response rating, Bedstraw (bedstraw; POSTEMERGENCE, Rate 50 g/ha): 8
Plant response rating, Bedstraw (bedstraw; POSTEMERGENCE, Rate 200 g/ha): 10
Plant response rating, Bedstraw (bedstraw; PREEMERGENCE, Rate 50 g/ha): 2
Plant response rating, Bedstraw (bedstraw; Rate 200 g/ha, PREEMERGENCE): 4
Plant response rating, Barnyardgrass (barnyardgrass; POSTEMERGENCE, Rate 50 g/ha): 3
Plant response rating, Barnyardgrass (barnyardgrass; POSTEMERGENCE, Rate 200 g/ha): 5
Plant response rating, Barnyardgrass (barnyardgrass; PREEMERGENCE, Rate 50 g/ha): 0
Plant response rating, Barnyardgrass (barnyardgrass; Rate 200 g/ha, PREEMERGENCE): 5
Plant response rating, Nutsedge (purple nutsedge; PREEMERGENCE, Rate 50 g/ha): 0
Plant response rating, Nutsedge (purple nutsedge; Rate 200 g/ha, POSTEMERGENCE): 6
Plant response rating, Nutsedge (purple nutsedge; Rate 200 g/ha, PREEMERGENCE): 0
Plant response rating, Cocklebur (cocklebur; POSTEMERGENCE, Rate 50 g/ha): 7
Plant response rating, Cocklebur (cocklebur; POSTEMERGENCE, Rate 200 g/ha): 8
Plant response rating, Cocklebur (cocklebur; PREEMERGENCE, Rate 50 g/ha): 0
Plant response rating, Cocklebur (cocklebur; Rate 200 g/ha, PREEMERGENCE): 4
Plant response rating, Lambsquarter (lambsquarters; POSTEMERGENCE, Rate 50 g/ha): 10
Plant response rating, Lambsquarter (lambsquarters; PREEMERGENCE, Rate 50 g/ha): 10
Plant response rating, Lambsquarter (lambsquarters; Rate 200 g/ha, POSTEMERGENCE): 10
Plant response rating, Lambsquarter (lambsquarters; Rate 200 g/ha, PREEMERGENCE): 10
Plant response rating, Sugar beet (sugar beet; POSTEMERGENCE, Rate 50 g/ha): 7
Plant response rating, Sugar beet (sugar beet; PREEMERGENCE, Rate 50 g/ha): 7
Plant response rating, Sugar beet (sugar beet; Rate 200 g/ha, POSTEMERGENCE): 10
Plant response rating, Sugar beet (sugar beet; Rate 200 g/ha, PREEMERGENCE): 9
Plant response rating, Corn (corn; POSTEMERGENCE, Rate 50 g/ha): 5
Plant response rating, Corn (corn; POSTEMERGENCE, Rate 200 g/ha): 5
Plant response rating, Corn (corn; PREEMERGENCE, Rate 50 g/ha): 0
Plant response rating, Corn (corn; Rate 200 g/ha, PREEMERGENCE): 1
